One experiment deals with KRAS G12C (Homo sapiens, UniProt P01116, G12C). The experiment is described as follows: GDP-GTP exchange assay (KRAS_G12C exchange). The format is biochemical. To be noted: bodipy-GDP loaded KRAS G12C 2.5 nM, SOS1 150 nM, GppNHp; 2 hours pre-incubation, 2 hours reaction; read-out: G12C_exchange. In a few lines: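 Fluorescence exchange of bodipy-GDP for GppNHp, SOS1-driven, read at 485/520 nm; IC50 from four-parameter variable-slope fit. Both mutants used 2.5 nM final labelled protein and a 2 h compound pre-incubation. G12C reaction had 500 uM GppNHp and 150 nM SOS1 for 2 h; G12D ran 4 h.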
Chain of KRAS G12C (P01116 1-188 isoform P01116-2 G12C): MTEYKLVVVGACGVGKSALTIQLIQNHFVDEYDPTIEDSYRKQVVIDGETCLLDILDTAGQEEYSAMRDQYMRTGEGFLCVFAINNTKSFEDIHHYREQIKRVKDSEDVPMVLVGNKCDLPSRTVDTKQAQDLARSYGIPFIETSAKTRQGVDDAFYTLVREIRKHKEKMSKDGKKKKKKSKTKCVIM

Experiment [1] concerns MIA PaCa-2 (KRAS G12C) cells. The experiment in a line: Cellular pERK HTRF assay (KRAS_G12C pERK). The format is cell-based, human. The note with it: Homo sapiens, MIA PaCa-2, 4 hours incubation, read-out: G12C_pERK. In a few lines:
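Phospho-ERK1/2 HTRF readout (665 and 620 nm) in lysed MIA PaCa-2 cells, antibodies incubated overnight at room temperature. Cells seeded the day before and treated with G12C compounds for 4 h at 37 °C; IC50 fitted to percent inhibition against log inhibitor concentration.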
Background: Time-resolved FRET reads energy transfer from a long-lived donor to a nearby acceptor.

For seven compounds, IC50 results are on record in patent US20210269434A1, “TRICYCLIC COMPOUNDS AS INHIBITORS OF KRAS” (Incyte Corporation, priority 2020, published 2021).

pIC50: −log10 of the molar value.

Regarding `C=CC(=O)N1CC[C@H](n2nnc3c(OC[C@@H]4CCCN4C)nc4c(F)c(-c5c(C)c(Cl)cc6[nH]ncc56)c(Cl)cc4c32)C[C@H]1CC#N` [Example 190a, 2-((2S,4S)-1-acryloyl-4-(8-chloro-7-(6-chloro-5-methyl-1H-indazol-4-yl)-6-fluoro-4-(((S)-1-methylpyrrolidin-2-yl)methoxy)-1H-[1,2,3]triazolo[4,5-c]quinolin-1-yl)piperidin-2-yl)acetonitrile], the pIC50 (on KRAS G12C; in experiment [1]) was at least 7.00 throughout.

For `C=C(F)C(=O)N1CC[C@H](n2nnc3c(OC[C@@H]4CCCN4C)nc4c(F)c(-c5c(C)c(Cl)cc6[nH]ncc56)c(Cl)cc4c32)C[C@H]1CC#N` [Example 192, 2-((2S,4S)-4-(8-chloro-7-(6-chloro-5-methyl-1H-indazol-4-yl)-6-fluoro-4-(((S)-1-methylpyrrolidin-2-yl)methoxy)-1H-[1,2,3]triazolo[4,5-c]quinolin-1-yl)-1-(2-fluoroacryloyl)piperidin-2-yl)acetonitrile], the pIC50 (at KRAS G12C; in experiment [1]) was at least 7.00 each time.

As to `COC/C=C/C(=O)N1CC[C@H](n2nnc3c(N4CC(C)(N(C)C)C4)nc4c(F)c(-c5c(C)c(Cl)cc6[nH]ncc56)c(C)cc4c32)C[C@H]1CC#N` [Example 195a, 2-((2S,4S)-4-(7-(6-chloro-5-methyl-1H-indazol-4-yl)-4-(3-(dimethylamino)-3-methylazetidin-1-yl)-6-fluoro-8-methyl-1H-[1,2,3]triazolo[4,5-c]quinolin-1-yl)-1-((E)-4-methoxybut-2-enoyl)piperidin-2-yl)acetonitrile], the pIC50 (on KRAS G12C; in experiment [1]) was at least 7.00 in each case.

As to `Cc1cc2c(nc(N3CC(C)(N(C)C)C3)c3nnn([C@H]4CCN(C(=O)/C=C/CN(C)C)[C@H](CC#N)C4)c32)c(F)c1-c1c(C)c(Cl)cc2[nH]ncc12` [Example 196a, 2-((2S,4S)-4-(7-(6-chloro-5-methyl-1H-indazol-4-yl)-4-(3-(dimethylamino)-3-methylazetidin-1-yl)-6-fluoro-8-methyl-1H-[1,2,3]triazolo[4,5-c]quinolin-1-yl)-1-((E)-4-(dimethylamino)but-2-enoyl)piperidin-2-yl)acetonitrile], the pIC50 (at KRAS G12C; in experiment [1]) was at least 7.00 throughout.

On to `Cc1cc2c(nc(N3CC(C)(N(C)C)C3)c3nnn([C@H]4CCN(C(=O)/C=C/C(F)F)[C@H](CC#N)C4)c32)c(F)c1-c1c(C)c(Cl)cc2[nH]ncc12` [Example 197a, 2-((2S,4S)-4-(7-(6-chloro-5-methyl-1H-indazol-4-yl)-4-(3-(dimethylamino)-3-methylazetidin-1-yl)-6-fluoro-8-methyl-1H-[1,2,3]triazolo[4,5-c]quinolin-1-yl)-1-((E)-4,4-difluorobut-2-enoyl)piperidin-2-yl)acetonitrile], for which the pIC50 (on KRAS G12C; in experiment [1]) was at least 7.00 throughout.

Turning to `C=CC(=O)N1CC[C@H](n2nnc3c(OC[C@@H]4CCCN4C)nc4c(F)c(-c5ccc(F)c(C)c5)c(C)cc4c32)C[C@H]1CC#N` [Example 199, 2-((2S,4S)-1-acryloyl-4-(6-fluoro-7-(4-fluoro-3-methylphenyl)-8-methyl-4-(((S)-1-methylpyrrolidin-2-yl)methoxy)-1H-[1,2,3]triazolo[4,5-c]quinolin-1-yl)piperidin-2-yl)acetonitrile], the pIC50 (at KRAS G12C; in experiment [1]) was at least 7.00 in each case.

For the compound `Cc1c(Cl)cc2[nH]ncc2c1-c1c(Cl)cc2c(nc(N3CC(N(C)C)C3)c3nnn([C@H]4CCN(C(=O)/C=C/C(F)F)[C@H](CC#N)C4)c32)c1F` [Example 201a, 2-((2S,4S)-4-(8-chloro-7-(6-chloro-5-methyl-1H-indazol-4-yl)-4-(3-(dimethylamino)azetidin-1-yl)-6-fluoro-1H-[1,2,3]triazolo[4,5-c]quinolin-1-yl)-1-((E)-4,4-difluorobut-2-enoyl)piperidin-2-yl)acetonitrile], the pIC50 (at KRAS G12C; in experiment [1]) was at least 7.00 in each case.
